Laboratory results: US20100086931A1, “METHOD FOR ASSAYING ACTION OF ANTITUMOR AGENT USING DECREASE IN GENE EXPRESSION LEVEL AS INDEX” (Eisai R&D Management Co., Ltd., priority 2007, published 2010)

System: peripheral blood mononuclear cells (PBMC)
Experiment: Microarray analysis (Human Exon 1.0 ST Array) of gene expression in PBMC
Format: cell-based
Settings: vs untreated group
Description: Since it is not easy to obtain a cancer tissue clinically, the measurement of the marker in hemocytes readily obtainable in peripheral blood would be more useful. It was then examined whether the marker gene obtained in cancer cells could change in peripheral mononuclear cells in a similar manner as observed in the cancer cells. Specifically peripheral blood was taken from three normal individuals (volunteers) and peripheral mononuclear cells were purified and treated with (8E,12E,14E)-7-((4-Cycloheptylpiperazin-1-yl)carbonyl)oxy-3,6,16,21-tetrahydroxy-6,10,12,16,20-pentamethyl-18,19-epoxytricosa-8,12,14-trien-11-olide for six hours, followed by measurement of change in expression of the gene by a microarray (Human Exon 1.0 ST Array: Affymetrix).
Ficoll-Paque PLUS solution (Amersham, 17-1440-02) was slowly added to the blood taken (with heparin added) from healthy individuals to form a layer underneath the blood (15 ml of Ficoll-Paque PLUS solution was added to 25 ml of blood). After the mixture was centrifuged at 1500 rpm for 30 min, the upper part containing platelets was removed and then a layer containing mononuclear cells was transferred to another tube. The cells were suspended in PBS and centrifuged at 1500 rpm for 5 min, followed by removal of the supernatant. After these steps were repeated twice, the cells were again suspended in RPMI1640 (containing 10% FBS, penicillin, and streptomycin) and the number of the cells was then counted.
PBMC was suspended in RPMI1640 medium (containing 10% FBS, penicillin, and streptomycin) to 5×10^6 cells/ml and 1 ml of the suspension was plated per well of a 24-well plate. Immediately, 111 μl of 10 times-concentrated (8E,12E,14E)-7-((4-Cycloheptylpiperazin-1-yl)carbonyl)oxy-3,6,16,21-tetrahydroxy-6,10,12,16,20-pentamethyl-18,19-epoxytricosa-8,12,14-trien-11-olide was added to the well (six wells per each concentration tested). The cells were then cultured in an incubator with 5% carbon dioxide gas at 37° C. Three hours later, the supernatant was collected and centrifuged at 1500 rpm for five minutes. TRI reagent (SIGMA) (1 ml) was added to each well of the plate from which the supernatant was removed to harvest the cells, which was added to the centrifuged pellet to dissolve. RNA was purified in accordance with the protocol of TRI reagent. RNA was further purified using RNeasy (QIAGEN) and, in accordance with the protocol, DNase I was added to the samples during the procedure. Absorbance at 260 nm was measured to quantify an amount of RNA.
Ribosomal RNA was removed from 1 μg of each RNA by using RiboMinus Human/Mouse Transcriptome Isolation Kit (Invitrogen). Single stranded cDNA synthesis, double stranded cDNA synthesis, cRNA synthesis, second single stranded cDNA synthesis, cDNA fragmentation, and cDNA labeling in order were carried out for total RNA from which ribosomal RNA was removed, using GeneChip Whole Transcript Sense Target Labeling and Control Reagents (Affymetrix) to make a cDNA probe. Subsequently, the cDNA probe was used for hybridization with Human Exon 1.0 ST Array (Affymetrix). The array was washed and stained, and luminescence intensity was measured by a scanner.
The expression level of the gene was quantified by using Expression Console Ver. 1.0 (Affymetrix) with Summarization Method and Normalization Method being set to “Median polish as used in RMA” and “None”, respectively.
Genes showing the change in the expression of the gene in both groups with the 10 nM treatment and the 30 nM treatment is, compared to that in the […], less than 25%; the expression level of the gene in the untreated group is more than 100; both P values of t-test for the 10 nM treated group and the untreated group, and for the 30 nM treated group and the untreated group are less than 5% were picked out. (Table 4). […]

CCC(O)C(C)C1OC1CC(C)(O)/C=C/C=C(\C)C1OC(=O)CC(O)CCC(C)(O)C(OC(=O)N2CCN(C3CCCCCC3)CC2)/C=C/C1C (centres unmarked) [E7107, (8E,12E,14E)-7-((4-Cycloheptylpiperazin-1-yl)carbonyl)oxy-3,6,16,21-tetrahydroxy-6,10,12,16,20-pentamethyl-18,19-epoxytricosa-8,12,14-trien-11-olide]
Fold Change in expression level of ARFGAP3 (Transcript Cluster 3962587) (10 nM): 0.21 | Fold Change in expression level of C13orf31 (Transcript Cluster 3487600) (10 nM): 0.21 | Fold Change in expression level of CD274 (Transcript Cluster 3161082) (10 nM): 0.19 | Fold Change in expression level of CTSL1 (Transcript Cluster 3178147) (10 nM): 0.09 | Fold Change in expression level of DOCK4 (Transcript Cluster 3068097) (10 nM): 0.16 | Fold Change in expression level of ENG (Transcript Cluster 3226097) (10 nM): 0.24 | Fold Change in expression level of GK (Transcript Cluster 3972929) (10 nM): 0.19 | Fold Change in expression level of KMO (Transcript Cluster 2388085) (10 nM): 0.13 | Fold Change in expression level of KYNU (Transcript Cluster 2508520) (10 nM): 0.10 | Fold Change in expression level of LAIR1 (Transcript Cluster 3870824) (10 nM): 0.21 | Fold Change in expression level of NRIP3 (Transcript Cluster 3362159) (10 nM): 0.15 | Fold Change in expression level of OLR1 (Transcript Cluster 3444043) (10 nM): 0.09 | Fold Change in expression level of P2RX4 (Transcript Cluster 3434760) (10 nM): 0.22 | Fold Change in expression level of PIK3R5 (Transcript Cluster 3744680) (10 nM): 0.23 | Fold Change in expression level of PLA2G7 (Transcript Cluster 2955827) (10 nM): 0.12 | Fold Change in expression level of RCN1 (Transcript Cluster 3325503) (10 nM): 0.09 | Fold Change in expression level of SEMA6B (Transcript Cluster 3846860) (10 nM): 0.23 | Fold Change in expression level of SLAMF7 (Transcript Cluster 2363202) (10 nM): 0.15 | Fold Change in expression level of SLC7A11 (Transcript Cluster 2786322) (10 nM): 0.13 | Fold Change in expression level of SLC37A2 (Transcript Cluster 3354443) (10 nM): 0.21 | Fold Change in expression level of SLC41A2 (Transcript Cluster 3469180) (10 nM): 0.21 | Fold Change in expression level of SLC43A2 (Transcript Cluster 3740367) (10 nM): 0.22 | Fold Change in expression level of SLC43A3 (Transcript Cluster 3373845) (10 nM): 0.17 | Fold Change in expression level of STEAP4 (Transcript Cluster 3060332) (10 nM): 0.20 | Fold Change in expression level of TNFAIP6 (Transcript Cluster 2510464) (10 nM): 0.18 | Fold Change in expression level of TNFSF15 (Transcript Cluster 3222128) (10 nM): 0.10 | Fold Change in expression level of TRAF1 (Transcript Cluster 3223738) (10 nM): 0.19 | Fold Change in expression level of TRAPPC4 (Transcript Cluster 3351775) (10 nM): 0.23 | Fold Change in expression level of ARFGAP3 (Transcript Cluster 3962587) (30 nM): 0.14 | Fold Change in expression level of C13orf31 (Transcript Cluster 3487600) (30 nM): 0.19 | Fold Change in expression level of CD274 (Transcript Cluster 3161082) (30 nM): 0.18 | Fold Change in expression level of CTSL1 (Transcript Cluster 3178147) (30 nM): 0.09 | Fold Change in expression level of DOCK4 (Transcript Cluster 3068097) (30 nM): 0.14 | Fold Change in expression level of ENG (Transcript Cluster 3226097) (30 nM): 0.20 | Fold Change in expression level of GK (Transcript Cluster 3972929) (30 nM): 0.21 | Fold Change in expression level of KMO (Transcript Cluster 2388085) (30 nM): 0.13 | Fold Change in expression level of KYNU (Transcript Cluster 2508520) (30 nM): 0.10 | Fold Change in expression level of LAIR1 (Transcript Cluster 3870824) (30 nM): 0.14 | Fold Change in expression level of NRIP3 (Transcript Cluster 3362159) (30 nM): 0.13 | Fold Change in expression level of OLR1 (Transcript Cluster 3444043) (30 nM): 0.04 | Fold Change in expression level of P2RX4 (Transcript Cluster 3434760) (30 nM): 0.22 | Fold Change in expression level of PIK3R5 (Transcript Cluster 3744680) (30 nM): 0.21 | Fold Change in expression level of PLA2G7 (Transcript Cluster 2955827) (30 nM): 0.15 | Fold Change in expression level of RCN1 (Transcript Cluster 3325503) (30 nM): 0.17 | Fold Change in expression level of SEMA6B (Transcript Cluster 3846860) (30 nM): 0.22 | Fold Change in expression level of SLAMF7 (Transcript Cluster 2363202) (30 nM): 0.14 | Fold Change in expression level of SLC7A11 (Transcript Cluster 2786322) (30 nM): 0.06 | Fold Change in expression level of SLC37A2 (Transcript Cluster 3354443) (30 nM): 0.23 | Fold Change in expression level of SLC41A2 (Transcript Cluster 3469180) (30 nM): 0.17 | Fold Change in expression level of SLC43A2 (Transcript Cluster 3740367) (30 nM): 0.18 | Fold Change in expression level of SLC43A3 (Transcript Cluster 3373845) (30 nM): 0.14 | Fold Change in expression level of STEAP4 (Transcript Cluster 3060332) (30 nM): 0.22 | Fold Change in expression level of TNFAIP6 (Transcript Cluster 2510464) (30 nM): 0.19 | Fold Change in expression level of TNFSF15 (Transcript Cluster 3222128) (30 nM): 0.07 | Fold Change in expression level of TRAF1 (Transcript Cluster 3223738) (30 nM): 0.17 | Fold Change in expression level of TRAPPC4 (Transcript Cluster 3351775) (30 nM): 0.21
